This passage reports IC50 results from patent publication US9637453B2, “3-spirocyclic-6-hydroxamic acid tetralins as HDAC inhibitors” (Forma Therapeutics, Inc., priority 2015, dated 2017).

One may read the pIC50 as the IC50 on a negative log10 scale, so that one unit is a factor of ten.

In assay [1] the target is T1, Full length human recombinant HDAC11 (Homo sapiens, UniProt Q96DB2).
T1 construct: Full length human recombinant HDAC6 and HDAC11 proteins were expressed in baculoviral system
T1 sequence (Q96DB2 1-347): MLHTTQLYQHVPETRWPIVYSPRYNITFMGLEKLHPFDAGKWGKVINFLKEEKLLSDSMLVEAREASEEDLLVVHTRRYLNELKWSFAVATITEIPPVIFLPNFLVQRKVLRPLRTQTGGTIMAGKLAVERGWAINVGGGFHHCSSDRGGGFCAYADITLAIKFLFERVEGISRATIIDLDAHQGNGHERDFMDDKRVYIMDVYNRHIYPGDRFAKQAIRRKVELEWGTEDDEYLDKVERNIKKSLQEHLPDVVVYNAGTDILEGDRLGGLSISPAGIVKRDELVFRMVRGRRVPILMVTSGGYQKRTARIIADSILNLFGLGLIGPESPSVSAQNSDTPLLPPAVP
Put plainly: In vitro histone deacetylase assay, enzymatic HDAC11 (electrophoretic mobility shift assay). To be noted: 10 nM HDAC11; 2 μM peptide substrate FAM-RHKK(tri-fluor-Ac)—NH2; 25° C.; 12 concentrations; read-out: HDAC11 Activity Range (IC50). In kind it is biochemical. The method in brief: (§1)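 Baculovirus-expressed full-length enzymes (HDAC6 1 nM, FAM-RHKK(Ac)-NH2; HDAC11 10 nM, FAM-RHKK(tri-fluor-Ac)-NH2), 2 μM substrate, HEPES pH 7.5, 25°C, 12-point 3× dilutions. Product/substrate separated by microfluidic mobility shift after SDS quench; IC50 from 4-parameter fit, reported as +/++/+++ bins.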
For orientation: Mobility shift assays separate free from complexed probe on a gel.

The target of assay [2] is T2, Full length human recombinant HDAC6 (Homo sapiens, UniProt Q9UBN7).
T2 construct: Full length human recombinant HDAC6 and HDAC11 proteins were expressed in baculoviral system
T2 sequence (Q9UBN7 1-1215): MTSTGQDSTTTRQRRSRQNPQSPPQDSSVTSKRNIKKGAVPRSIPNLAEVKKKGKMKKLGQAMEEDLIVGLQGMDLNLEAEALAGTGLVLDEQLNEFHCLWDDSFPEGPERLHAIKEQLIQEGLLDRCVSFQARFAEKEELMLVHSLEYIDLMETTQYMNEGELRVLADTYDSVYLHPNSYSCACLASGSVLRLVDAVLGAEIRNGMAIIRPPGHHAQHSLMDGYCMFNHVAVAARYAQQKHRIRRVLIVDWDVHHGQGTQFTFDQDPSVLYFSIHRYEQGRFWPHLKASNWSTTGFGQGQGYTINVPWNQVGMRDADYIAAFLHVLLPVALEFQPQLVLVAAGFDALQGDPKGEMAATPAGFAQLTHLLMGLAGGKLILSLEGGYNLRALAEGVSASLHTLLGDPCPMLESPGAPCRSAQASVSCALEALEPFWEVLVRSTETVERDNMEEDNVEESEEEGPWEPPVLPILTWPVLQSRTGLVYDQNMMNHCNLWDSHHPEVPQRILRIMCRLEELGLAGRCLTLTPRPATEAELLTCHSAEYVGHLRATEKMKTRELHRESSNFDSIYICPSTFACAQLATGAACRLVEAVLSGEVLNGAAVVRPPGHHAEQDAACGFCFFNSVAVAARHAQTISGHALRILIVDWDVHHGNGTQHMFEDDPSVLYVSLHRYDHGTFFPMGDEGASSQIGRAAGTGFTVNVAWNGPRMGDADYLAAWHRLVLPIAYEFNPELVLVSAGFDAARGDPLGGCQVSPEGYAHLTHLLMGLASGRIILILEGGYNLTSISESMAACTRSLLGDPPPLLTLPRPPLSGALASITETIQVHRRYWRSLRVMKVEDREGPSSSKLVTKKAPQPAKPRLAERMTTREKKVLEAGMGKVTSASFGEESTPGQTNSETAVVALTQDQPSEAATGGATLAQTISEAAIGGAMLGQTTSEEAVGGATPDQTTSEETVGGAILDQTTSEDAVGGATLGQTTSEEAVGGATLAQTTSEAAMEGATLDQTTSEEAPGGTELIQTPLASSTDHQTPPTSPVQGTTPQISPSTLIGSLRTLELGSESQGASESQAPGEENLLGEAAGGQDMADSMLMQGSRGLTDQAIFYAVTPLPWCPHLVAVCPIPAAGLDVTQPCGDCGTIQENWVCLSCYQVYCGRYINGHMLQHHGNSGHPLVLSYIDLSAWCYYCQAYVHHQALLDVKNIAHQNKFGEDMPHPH
The assay is described as follows: In vitro histone deacetylase assay, enzymatic HDAC6 (electrophoretic mobility shift assay). In kind it is biochemical. The following applies: 1 nM HDAC6; 2 μM peptide substrate FAM-RHKK(Ac)—NH2; 25° C.; 12 concentrations; read-out: HDAC6 Activity Range (IC50). Put shortly:
as §1

pIC50: −log10 of the molar value.

Take `CC(C)N1CCC2(CCc3ccc(C(=O)NO)cc3C2)C1` (centres unmarked) [Compound I-11, N-hydroxy-1′-isopropyl-3,4-dihydro-1H-spiro[naphthalene-2,3′-pyrrolidine]-7-carboxamide]: the pIC50 in assay [1] was less than 6.30; in assay [2], 6.30 to 7.00.
Taken in the same sequence, the figures for `COc1ccc(C(=O)N2CCC3(CCc4ccc(C(=O)NO)cc4O3)CC2)cc1` [II-1, N-hydroxy-1′-(4-methoxybenzoyl)spiro[chroman-2,4′-piperidine]-7-carboxamide] were less than 6.30 and not below 7.00.
Taken in the same sequence, the figures for `O=C(NO)c1ccc2c(c1)C[C@]1(CC2)CCN(C/C=C/c2ccccc2)C1=O` [Compound I-86, (R)-1′-cinnamyl-N-hydroxy-2′-oxo-3,4-dihydro-H-spiro[naphthalene-2,3′-pyrrolidine]-7-carboxamide] were not below 7.00 and not below 7.00.
Taken in the same sequence, the figures for `O=C(NO)c1ccc2c(c1)C[C@@]1(CC2)CCN(CC2CCOCC2)C1=O` [Compound I-57, (S)—N-hydroxy-2′-oxo-1′-((tetrahydro-2H-pyran-4-yl)methyl)-3,4-dihydro-1H-spiro[naphthalene-2,3′-pyrrolidine]-7-carboxamide] were less than 6.30 and not below 7.00.
In the case of `CS(=O)(=O)c1ccc(CN2CC[C@]3(CCc4ccc(C(=O)NO)cc4C3)C2=O)cc1` [Compound I-51, (R)—N-hydroxy-1′-(4-(methylsulfonyl)benzyl)-2′-oxo-3,4-dihydro-1H-spiro[naphthalene-2,3′-pyrrolidine]-7-carboxamide], the negative logarithm of the IC50 (pIC50) in assay [1] and in assay [2] was not below 7.00 in each case.
For `O=C(NO)c1ccc2c(c1)CC1(CC2)CCN(Cc2ccncc2)C1=O` (centres unmarked) [Compound I-22, N-hydroxy-2′-oxo-1′-(pyridin-4-ylmethyl)-3,4-dihydro-1H-spiro[naphthalene-2,3′-pyrrolidine]-7-carboxamide], the figures for the pIC50 in assay [1] and in assay [2] were less than 6.30 and not below 7.00, respectively.
The matching figures for `O=C(NO)c1ccc2c(c1)C[C@@]1(CC2)CCN(Cc2cccnc2)C1=O` [Compound I-70, (S)—N-hydroxy-2′-oxo-1′-(pyridin-3-ylmethyl)-3,4-dihydro-1H-spiro[naphthalene-2,3′-pyrrolidine]-7-carboxamide]: less than 6.30 and not below 7.00.
Taken in the same sequence, the figures for `Cc1ccc(CN2CC[C@@]3(CCc4ccc(C(=O)NO)cc4C3)C2=O)cc1` [Compound I-122, (S)—N-hydroxy-1′-(4-methylbenzyl)-2′-oxo-3,4-dihydro-1H-spiro[naphthalene-2,3′-pyrrolidine]-7-carboxamide] were not below 7.00 and not below 7.00.
Taken in the same sequence, the figures for `O=C(NO)c1ccc2c(c1)C[C@@]1(CC2)CCN(Cc2ccc3nonc3c2)C1=O` [Compound I-63, (S)-1′-(benzo[c][1,2,5]oxadiazol-5-ylmethyl)-N-hydroxy-2′-oxo-3,4-dihydro-1H-spiro[naphthalene-2,3′-pyrrolidine]-7-carboxamide] were less than 6.30 and not below 7.00.
Take `COCCN1CC[C@@]2(CCc3ccc(C(=O)NO)cc3C2)C1=O` [Compound I-56, (S)—N-hydroxy-1′-(2-methoxyethyl)-2′-oxo-3,4-dihydro-1H-spiro[naphthalene-2,3′-pyrrolidine]-7-carboxamide]: the pIC50 in assay [1] was less than 6.30; in assay [2], not below 7.00.
The matching figures for `O=C(NO)c1ccc2c(c1)C[C@]1(CC2)CC(=O)N(CC(F)(F)F)C1` [Compound I-149, (R)—N-hydroxy-5′-oxo-1′-(2,2,2-trifluoroethyl)-3,4-dihydro-1H-spiro[naphthalene-2,3′-pyrrolidine]-7-carboxamide]: less than 6.30 and not below 7.00.
Taken in the same sequence, the figures for `CN(C)CCCN1CCC2(CCc3ccc(C(=O)NO)cc3C2)C1=O` (centres unmarked) [Compound I-25, 1′-(3-(dimethylamino)propyl)-N-hydroxy-2′-oxo-3,4-dihydro-1H-spiro[naphthalene-2,3′-pyrrolidine]-7-carboxamide] were less than 6.30 and not below 7.00.
Taken in the same sequence, the figures for `O=C(NO)c1ccc2c(c1)C[C@@]1(CC2)CCN(Cc2ccc(Cl)cc2)C1=O` [Compound I-37, (S)-1′-(4-chlorobenzyl)-N-hydroxy-2′-oxo-3,4-dihydro-1H-spiro[naphthalene-2,3′-pyrrolidine]-7-carboxamide] were not below 7.00 and not below 7.00.
As for `O=C(NO)c1ccc2c(c1)C[C@]1(CC2)CCN(CC2CCOCC2)C1=O` [Compound I-85, (R)—N-hydroxy-2′-oxo-1′-((tetrahydro-2H-pyran-4-yl)methyl)-3,4-dihydro-1H-spiro[naphthalene-2,3′-pyrrolidine]-7-carboxamide], the pIC50 is less than 6.30 in assay [1] and not below 7.00 in assay [2].
Taken in the same sequence, the figures for `O=C(NO)c1ccc2c(c1)C[C@@]1(CC2)CCN(Cc2cnc(Cl)s2)C1=O` [Compound I-49, (S)-1′-((2-chlorothiazol-5-yl)methyl)-N-hydroxy-2′-oxo-3,4-dihydro-1H-spiro[naphthalene-2,3′-pyrrolidine]-7-carboxamide] were less than 6.30 and not below 7.00.
The matching figures for `COc1ccc(CN2CCC3(CCc4ccc(C(=O)NO)cc4C3)C2)cc1` (centres unmarked) [Compound I-3, N-hydroxy-1′-(4-methoxybenzyl)-3,4-dihydro-1H-spiro[naphthalene-2,3′-pyrrolidine]-7-carboxamide]: less than 6.30 and 6.30 to 7.00.
With `O=C(NO)c1ccc2c(c1)C[C@@]1(CC2)CCN(c2cnc3ccccc3c2)C1=O` [Compound I-118, (S)—N-hydroxy-2′-oxo-1′-(quinolin-3-yl)-3,4-dihydro-1H-spiro[naphthalene-2,3′-pyrrolidine]-7-carboxamide], the figures for the pIC50 in assay [1] and in assay [2] were less than 6.30 and not below 7.00, respectively.
Taken in the same sequence, the figures for `CN1C[C@]2(CCc3ccc(C(=O)NO)cc3C2)CC1=O` [Compound I-131, (S)—N-hydroxy-1′-methyl-5′-oxo-3,4-dihydro-1H-spiro[naphthalene-2,3′-pyrrolidine]-7-carboxamide] were less than 6.30 and not below 7.00.
Taken in the same sequence, the figures for `O=C(NO)c1ccc2c(c1)OC1(CC2)CCN(C(=O)C2CCCCC2)CC1` [II-5, 1′-(cyclohexanecarbonyl)-N-hydroxyspiro[chromane-2,4′-piperidine]-7-carboxamide] were 6.30 to 7.00 and not below 7.00.
The matching figures for `O=C(NO)c1ccc2c(c1)C[C@]1(CC2)CCN(c2ccccn2)C1=O` [Compound I-43, (R)—N-hydroxy-2′-oxo-1′-(pyridin-2-yl)-3,4-dihydro-1H-spiro[naphthalene-2,3′-pyrrolidine]-7-carboxamide]: less than 6.30 and not below 7.00.
As for `O=C(NO)c1ccc2c(c1)C[C@@]1(CC2)CC(=O)N(CC2COC2)C1` [Compound I-147, (S)—N-hydroxy-1′-(oxetan-3-ylmethyl)-5′-oxo-3,4-dihydro-1H-spiro[naphthalene-2,3′-pyrrolidine]-7-carboxamide], the figures for the pIC50 in assay [1] and in assay [2] were less than 6.30 and not below 7.00, respectively.
With `O=C(NO)c1ccc2c(c1)C[C@]1(CC2)CC(=O)N(c2ccccc2)C1` [Compound I-145, (R)—N-hydroxy-5′-oxo-1′-phenyl-3,4-dihydro-1H-spiro[naphthalene-2,3′-pyrrolidine]-7-carboxamide], the pIC50 in assay [1] is less than 6.30; in assay [2] it was not below 7.00.
